Results as given in patent US10160753B2, “Indazole compounds as IRAK4 inhibitors” (Aurigene Discovery Technologies Limited, priority 2014, dated 2018).
Counter-ions that a name gives are not always drawn.

What follows are compounds tested against T1, recombinant IRAK-4 kinase (Homo sapiens, UniProt Q9NWZ3) (assay: IRAK-4 Biochemical Assay (TR-FRET)). Details: 30 min pre-incubation, 100 nM Biotin Histone H3, 20 μM ATP, read-out: IC50 values for IRAK4 activity.
T1 construct: purchased Millipore, USA
T1 sequence (Q9NWZ3 1-460): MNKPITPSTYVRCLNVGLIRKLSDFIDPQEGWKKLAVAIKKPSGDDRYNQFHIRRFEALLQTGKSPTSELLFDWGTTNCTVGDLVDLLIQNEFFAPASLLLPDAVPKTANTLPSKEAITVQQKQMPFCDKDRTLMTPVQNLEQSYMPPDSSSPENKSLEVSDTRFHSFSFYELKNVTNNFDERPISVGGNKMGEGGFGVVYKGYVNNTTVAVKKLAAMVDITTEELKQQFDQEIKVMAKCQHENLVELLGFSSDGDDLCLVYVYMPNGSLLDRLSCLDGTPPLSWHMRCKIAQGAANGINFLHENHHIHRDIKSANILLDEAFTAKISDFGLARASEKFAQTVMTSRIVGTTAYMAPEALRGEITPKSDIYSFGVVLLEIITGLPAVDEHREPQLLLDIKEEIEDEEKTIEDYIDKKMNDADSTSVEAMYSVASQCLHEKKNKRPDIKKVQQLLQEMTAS

Row | Structure (SMILES) | IC50 [nM]
1 | Cc1cc(-c2nc(C(=O)Nc3cc4cnn(C)c4cc3N3CCC(O)CC3)co2)ccn1 [Example 77, N-(6-(4-hydroxypiperidin-1-yl)-1-methyl-1H-indazol-5-yl)-2-(2-methylpyridin-4-yl)oxazole-4-carboxamide] | < 50
2 | Cc1cc(-c2nc(C(=O)Nc3cc4cnn(C)c4cc3N3CCC(F)CC3)co2)ccn1 [Example 78, N-(6-(4-fluoropiperidin-1-yl)-1-methyl-1H-indazol-5-yl)-2-(2-methylpyridin-4-yl)oxazole-4-carboxamide] | < 50
3 | Cc1cc(-c2nc(C(=O)Nc3cc4cn(C)nc4cc3N3CCCC(F)C3)co2)ccn1 (stereo not shown) [Example 79, N-(6-(3-fluoropiperidin-1-yl)-2-methyl-2H-indazol-5-yl)-2-(2-methylpyridin-4-yl)oxazole-4-carboxamide] | < 50
4 | Cc1cc(-c2nc(C(=O)Nc3cc4cn(C)nc4cc3N3CCC(CO)CC3)co2)ccn1 [Example 80, N-(6-(4-(hydroxymethyl)piperidin-1-yl)-2-methyl-2H-indazol-5-yl)-2-(2-methylpyridin-4-yl)oxazole-4-carboxamide] | < 50
5 | Cc1cc(-c2nc(C(=O)Nc3cc4c(C)nn(C)c4cc3N3CCC(O)CC3)co2)ccn1 [Example 81, N-(6-(4-hydroxypiperidin-1-yl)-1,3-dimethyl-1H-indazol-5-yl)-2-(2-methylpyridin-4-yl)oxazole-4-carboxamide] | < 50
6 | Cc1cc(-c2nc(C(=O)Nc3cc4cn(C)nc4cc3N3CCCC(CO)C3)co2)ccn1 (stereo not shown) [Example 82, N-(6-(3-(hydroxymethyl)piperidin-1-yl)-2-methyl-2H-indazol-5-yl)-2-(2-methylpyridin-4-yl)oxazole-4-carboxamide] | < 50
7 | Cc1cc(-c2nc(C(=O)Nc3cc4c(C)n(C)nc4cc3N3CCC(O)CC3)co2)ccn1 [Example 83, N-(6-(4-hydroxypiperidin-1-yl)-2,3-dimethyl-2H-indazol-5-yl)-2-(2-methylpyridin-4-yl)oxazole-4-carboxamide] | < 50
8 | CC(=O)Nc1cc(-c2nc(C(=O)Nc3cc4cn(C)nc4cc3N3CCCCC3)co2)ccn1 [Example 84, 2-(2-acetamidopyridin-4-yl)-N-(2-methyl-6-(piperidin-1-yl)-2H-indazol-5-yl)oxazole-4-carboxamide] | < 50
9 | CC(=O)Nc1cc(-c2nc(C(=O)Nc3cc4cn(C)nc4cc3N3CCCC(F)C3)co2)ccn1 (stereo not shown) [Example 85, 2-(2-acetamidopyridin-4-yl)-N-(6-(3-fluoropiperidin-1-yl)-2-methyl-2H-indazol-5-yl)oxazole-4-carboxamide] | < 50
10 | Cn1cc2cc(NC(=O)c3coc(-c4ccnc(N)c4)n3)c(N3CCCCC3)cc2n1 [Example 86, 2-(2-aminopyridin-4-yl)-N-(2-methyl-6-(piperidin-1-yl)-2H-indazol-5-yl)oxazole-4-carboxamide hydrochloride] | < 50
11 | Cc1cc(-c2nc(C(=O)Nc3cc4c(C)nn(C)c4cc3N3CCC(F)CC3)co2)ccn1 [Example 87, N-(6-(4-fluoropiperidin-1-yl)-1,3-dimethyl-1H-indazol-5-yl)-2-(2-methylpyridin-4-yl)oxazole-4-carboxamide] | < 50
12 | Cc1cc(-c2nc(C(=O)Nc3cc4cn(C)nc4cc3N[C@H]3CC[C@H](O)CC3)co2)ccn1 [Example 88, N-(6-(((1R,4R)-4-hydroxycyclohexyl)amino)-2-methyl-2H-indazol-5-yl)-2-(2-methylpyridin-4-yl)oxazole-4-carboxamide] | < 50
13 | Cc1cc(-c2nc(C(=O)Nc3cc4cnn(C)c4cc3N3CCC(CO)CC3)co2)ccn1 [Example 89, N-(6-(4-(hydroxymethyl)piperidin-1-yl)-1-methyl-1H-indazol-5-yl)-2-(2-methylpyridin-4-yl)oxazole-4-carboxamide] | < 50
14 | Cn1cc2cc(NC(=O)c3coc(-c4ccnc(N)c4)n3)c(N3CCC(F)CC3)cc2n1 [Example 90, 2-(2-aminopyridin-4-yl)-N-(6-(4-fluoropiperidin-1-yl)-2-methyl-2H-indazol-5-yl)oxazole-4-carboxamide hydrochloride] | < 50
15 | Cc1cc(-c2nc(C(=O)Nc3cc4cn(C)nc4cc3N3CCC(F)CC3)co2)ccn1 [Example 91, N-(6-(4-fluoropiperidin-1-yl)-2-methyl-2H-indazol-5-yl)-2-(2-methylpyridin-4-yl)oxazole-4-carboxamide hydrochloride] | < 50
16 | C[C@H](O)Cn1cc(-c2cccc(C(=O)Nc3cc4cn(C)nc4cc3N3CCC(CO)CC3)n2)cn1 [Example 92, (S)—N-(6-(4-(hydroxymethyl)piperidin-1-yl)-2-methyl-2H-indazol-5-yl)-6-(1-(2-hydroxypropyl)-1H-pyrazol-4-yl)picolinamide] | < 50

Row | Structure (SMILES) | IC50 [nM]
17 | Cn1cc2cc(NC(=O)c3coc(-c4ccnc(N)c4)n3)c(N3CCC(O)CC3)cc2n1 [Example 93, 2-(2-aminopyridin-4-yl)-N-(6-(4-hydroxypiperidin-1-yl)-2-methyl-2H-indazol-5-yl)oxazole-4-carboxamide hydrochloride] | < 50
18 | COCCn1ncc2cc(NC(=O)c3coc(-c4ccnc(C)c4)n3)c(N3CCC(CO)CC3)cc21 [Example 94, N-(6-(4-(hydroxymethyl)piperidin-1-yl)-1-(2-methoxyethyl)-1H-indazol-5-yl)-2-(2-methylpyridin-4-yl)oxazole-4-carboxamide] | < 50
19 | C[C@H](O)Cn1cc(-c2cccc(C(=O)Nc3cc4cnn(C)c4cc3N3CCC(CO)CC3)n2)cn1 [Example 95, (S)—N-(6-(4-(hydroxymethyl)piperidin-1-yl)-1-methyl-1H-indazol-5-yl)-6-(1-(2-hydroxypropyl)-1H-pyrazol-4-yl)picolinamide] | > 100
20 | COCCn1cc2cc(NC(=O)c3coc(-c4ccnc(C)c4)n3)c(N3CCC(CO)CC3)cc2n1 [Example 96, N-(6-(4-(hydroxymethyl)piperidin-1-yl)-2-(2-methoxyethyl)-2H-indazol-5-yl)-2-(2-methylpyridin-4-yl)oxazole-4-carboxamide] | < 50
21 | COc1cc(-c2nc(C(=O)Nc3cc4cn(C)nc4cc3N3CCC(CO)CC3)co2)ccn1 [Example 97, N-(6-(4-(hydroxymethyl)piperidin-1-yl)-2-methyl-2H-indazol-5-yl)-2-(2-methoxypyridin-4-yl)oxazole-4-carboxamide] | < 50
22 | CC(=O)Nc1cc(-c2nc(C(=O)Nc3cc4cn(C)nc4cc3N3CCC(CO)CC3)co2)ccn1 [Example 98, 2-(2-acetamidopyridin-4-yl)-N-(6-(4-(hydroxymethyl)piperidin-1-yl)-2-methyl-2H-indazol-5-yl)oxazole-4-carboxamide] | < 50
23 | Cn1ncc2cc(NC(=O)c3coc(-c4ccnc(N)c4)n3)c(N3CCC(CO)CC3)cc21 [Example 99, 2-(2-aminopyridin-4-yl)-N-(6-(4-(hydroxymethyl)piperidin-1-yl)-1-methyl-1H-indazol-5-yl)oxazole-4-carboxamide hydrochloride] | < 50
24 | Cn1cc2cc(NC(=O)c3coc(-c4ccnc(N)c4)n3)c(N3CCC(CO)CC3)cc2n1 [Example 100, 2-(2-aminopyridin-4-yl)-N-(6-(4-(hydroxymethyl)piperidin-1-yl)-2-methyl-2H-indazol-5-yl)oxazole-4-carboxamide hydrochloride] | < 50
25 | COc1cc(-c2nc(C(=O)Nc3cc4cnn(C)c4cc3N3CCC(O)CC3)co2)ccn1 [Example 101, N-(6-(4-hydroxypiperidin-1-yl)-1-methyl-1H-indazol-5-yl)-2-(2-methoxypyridin-4-yl)oxazole-4-carboxamide] | < 50
26 | Cn1cc2cc(NC(=O)c3coc(-c4ccnc(N)c4)n3)c(N3CCCC(O)C3)cc2n1 (stereo not shown) [Example 102, 2-(2-aminopyridin-4-yl)-N-(6-(3-hydroxypiperidin-1-yl)-2-methyl-2H-indazol-5-yl)oxazole-4-carboxamide hydrochloride] | < 50
27 | COc1cc(-c2nc(C(=O)Nc3cc4cn(C)nc4cc3N3CCCCC3)co2)ccn1 [Example 103, 2-(2-methoxypyridin-4-yl)-N-(2-methyl-6-(piperidin-1-yl)-2H-indazol-5-yl)oxazole-4-carboxamide] | < 50
28 | Cn1cc2cc(NC(=O)c3coc(-c4ccnc(N)c4)n3)c(N3CCCC(F)C3)cc2n1 (stereo not shown) [Example 104, 2-(2-aminopyridin-4-yl)-N-(6-(3-fluoropiperidin-1-yl)-2-methyl-2H-indazol-5-yl)oxazole-4-carboxamide hydrochloride] | < 50
29 | Cn1cc2cc(NC(=O)c3coc(-c4ccnc(N)c4)n3)c(N3CC[C@@H](O)C3)cc2n1 [Example 105, (R)-2-(2-aminopyridin-4-yl)-N-(6-(3-hydroxypyrrolidin-1-yl)-2-methyl-2H-indazol-5-yl)oxazole-4-carboxamide hydrochloride] | < 50
30 | COCC(=O)OC1CCN(c2cc3c(cc2NC(=O)c2coc(-c4ccnc(C)c4)n2)c(C)nn3C)CC1 [Example 106, 1-(1,3-dimethyl-5-(2-(2-methylpyridin-4-yl)oxazole-4-carboxamido)-1H-indazol-6-yl)piperidin-4-yl 2-methoxyacetate] | < 50
31 | COc1cc(-c2nc(C(=O)Nc3cc4cn(C)nc4cc3N3CCC(O)CC3)co2)ccn1 [Example 107, N-(6-(4-hydroxypiperidin-1-yl)-2-methyl-2H-indazol-5-yl)-2-(2-methoxypyridin-4-yl)oxazole-4-carboxamide hydrochloride] | < 50
